Assay results published in ChEMBL document CHEMBL6074711, “Design, Synthesis, and Activity Evaluation of C-23-Modified 5-O-Mycaminosyltylonolide Derivatives” (ACS Med Chem Lett, 2024).
Values after ≈ are worked out from the molar mass of the structure shown.

Columns and labels:
Staphylococcus aureus = experiment: Antibacterial activity against Staphylococcus aureus ATCC25923 incubated for 16 to 20 hrs by broth microdilution method; type: functional; conditions: time 16-20 hrs
Escherichia coli = experiment: Antibacterial activity against Escherichia coli ATCC25922 incubated for 16 to 20 hrs by broth microdilution method; type: functional; conditions: time 16-20 hrs

Row | MIC (Staphylococcus aureus) | MIC (Escherichia coli) | Structure (SMILES)
1 | 0.5 µg/mL (≈ 0.533 µM) | 4 µg/mL (≈ 4.26 µM) | CCCN(C)C[C@H]1/C=C(C)/C=C/C(=O)[C@H](C)C[C@H](CCN(Cc2cn(-c3cnc4ccccc4c3)nn2)c2ccccc2)[C@H](O[C@@H]2O[C@H](C)[C@@H](O)[C@H](N(C)C)[C@H]2O)[C@@H](C)[C@H](O)CC(=O)O[C@@H]1CC
2 | 2 µg/mL (≈ 2.18 µM) | 8 µg/mL (≈ 8.71 µM) | CCCCN(CCCC)C[C@H]1/C=C(C)/C=C/C(=O)[C@H](C)C[C@H](CCNCc2cn(-c3cnc4ccccc4c3)nn2)[C@H](O[C@@H]2O[C@H](C)[C@@H](O)[C@H](N(C)C)[C@H]2O)[C@@H](C)[C@H](O)CC(=O)O[C@@H]1CC
3 | 1 µg/mL (≈ 1.09 µM) | 4 µg/mL (≈ 4.37 µM) | CC[C@H]1OC(=O)C[C@@H](O)[C@H](C)[C@@H](O[C@@H]2O[C@H](C)[C@@H](O)[C@H](N(C)C)[C@H]2O)[C@@H](CCN(C)Cc2cn(-c3cnc4ccccc4c3)nn2)C[C@@H](C)C(=O)/C=C/C(C)=C/[C@@H]1CN(C)C1CCCCC1
4 | 0.5 µg/mL (≈ 0.572 µM) | 2 µg/mL (≈ 2.29 µM) | CC[C@H]1OC(=O)C[C@@H](O)[C@H](C)[C@@H](O[C@@H]2O[C@H](C)[C@@H](O)[C@H](N(C)C)[C@H]2O)[C@@H](CCNCc2cn(-c3cnc4ccccc4c3)nn2)C[C@@H](C)C(=O)/C=C/C(C)=C/[C@@H]1CN1CCCCC1
5 | 2 µg/mL (≈ 2.15 µM) | 16 µg/mL (≈ 17.2 µM) | CC[C@H]1OC(=O)C[C@@H](O)[C@H](C)[C@@H](O[C@@H]2O[C@H](C)[C@@H](O)[C@H](N(C)C)[C@H]2O)[C@@H](CCN(C)Cc2cn(-c3cnc4ccccc4c3)nn2)C[C@@H](C)C(=O)/C=C/C(C)=C/[C@@H]1CI
6 | 0.25 µg/mL (≈ 0.31 µM) | 4 µg/mL (≈ 4.96 µM) | CC[C@H]1OC(=O)C[C@@H](O)[C@H](C)[C@@H](O[C@@H]2O[C@H](C)[C@@H](O)[C@H](N(C)C)[C@H]2O)[C@@H](CCNCc2cn(-c3cnc4ccccc4c3)nn2)C[C@@H](C)C(=O)/C=C/C(C)=C/[C@@H]1CO
7 | 0.5 µg/mL (≈ 0.541 µM) | 2 µg/mL (≈ 2.16 µM) | CC[C@H]1OC(=O)C[C@@H](O)[C@H](C)[C@@H](O[C@@H]2O[C@H](C)[C@@H](O)[C@H](N(C)C)[C@H]2O)[C@@H](CCN(Cc2cn(-c3cnc4ccccc4c3)nn2)c2ccccc2)C[C@@H](C)C(=O)/C=C/C(C)=C/[C@@H]1CN(C)CC
8 | 2 µg/mL (≈ 2.16 µM) | 8 µg/mL (≈ 8.66 µM) | CCCNC[C@H]1/C=C(C)/C=C/C(=O)[C@H](C)C[C@H](CCN(Cc2cn(-c3cnc4ccccc4c3)nn2)c2ccccc2)[C@H](O[C@@H]2O[C@H](C)[C@@H](O)[C@H](N(C)C)[C@H]2O)[C@@H](C)[C@H](O)CC(=O)O[C@@H]1CC
9 | 0.5 µg/mL (≈ 0.58 µM) | 2 µg/mL (≈ 2.32 µM) | CC[C@H]1OC(=O)C[C@@H](O)[C@H](C)[C@@H](O[C@@H]2O[C@H](C)[C@@H](O)[C@H](N(C)C)[C@H]2O)[C@@H](CCNCc2cn(-c3cnc4ccccc4c3)nn2)C[C@@H](C)C(=O)/C=C/C(C)=C/[C@@H]1CN(CC)CC
10 | 2 µg/mL (≈ 2.32 µM) | 8 µg/mL (≈ 9.28 µM) | CCCNC[C@H]1/C=C(C)/C=C/C(=O)[C@H](C)C[C@H](CCN(C)Cc2cn(-c3cnc4ccccc4c3)nn2)[C@H](O[C@@H]2O[C@H](C)[C@@H](O)[C@H](N(C)C)[C@H]2O)[C@@H](C)[C@H](O)CC(=O)O[C@@H]1CC
11 | 0.5 µg/mL (≈ 0.554 µM) | 2 µg/mL (≈ 2.22 µM) | CC[C@H]1OC(=O)C[C@@H](O)[C@H](C)[C@@H](O[C@@H]2O[C@H](C)[C@@H](O)[C@H](N(C)C)[C@H]2O)[C@@H](CCNCc2cn(-c3cnc4ccccc4c3)nn2)C[C@@H](C)C(=O)/C=C/C(C)=C/[C@@H]1CN1CCCCCCC1
12 | 4 µg/mL (≈ 4.11 µM) | 8 µg/mL (≈ 8.23 µM) | CC[C@H]1OC(=O)C[C@@H](O)[C@H](C)[C@@H](O[C@@H]2O[C@H](C)[C@@H](O)[C@H](N(C)C)[C@H]2O)[C@@H](CCN(Cc2cn(-c3cnc4ccccc4c3)nn2)c2ccccc2)C[C@@H](C)C(=O)/C=C/C(C)=C/[C@@H]1CNCc1ccccc1
13 | 2 µg/mL (≈ 2.18 µM) | 8 µg/mL (≈ 8.73 µM) | CC[C@H]1OC(=O)C[C@@H](O)[C@H](C)[C@@H](O[C@@H]2O[C@H](C)[C@@H](O)[C@H](N(C)C)[C@H]2O)[C@@H](CCNCc2cn(-c3cnc4ccccc4c3)nn2)C[C@@H](C)C(=O)/C=C/C(C)=C/[C@@H]1CI
14 | 2 µg/mL (≈ 2.01 µM) | 32 µg/mL (≈ 32.2 µM) | CC[C@H]1OC(=O)C[C@@H](O)[C@H](C)[C@@H](O[C@@H]2O[C@H](C)[C@@H](O)[C@H](N(C)C)[C@H]2O)[C@@H](CCN(Cc2cn(-c3cnc4ccccc4c3)nn2)c2ccccc2)C[C@@H](C)C(=O)/C=C/C(C)=C/[C@@H]1CI
15 | 1 µg/mL (≈ 1.01 µM) | 32 µg/mL (≈ 32.2 µM) | CCCCN(CCCC)C[C@H]1/C=C(C)/C=C/C(=O)[C@H](C)C[C@H](CCN(Cc2cn(-c3cnc4ccccc4c3)nn2)c2ccccc2)[C@H](O[C@@H]2O[C@H](C)[C@@H](O)[C@H](N(C)C)[C@H]2O)[C@@H](C)[C@H](O)CC(=O)O[C@@H]1CC
16 | 1 µg/mL (≈ 1.11 µM) | 2 µg/mL (≈ 2.22 µM) | CC[C@H]1OC(=O)C[C@@H](O)[C@H](C)[C@@H](O[C@@H]2O[C@H](C)[C@@H](O)[C@H](N(C)C)[C@H]2O)[C@@H](CCNCc2cn(-c3cnc4ccccc4c3)nn2)C[C@@H](C)C(=O)/C=C/C(C)=C/[C@@H]1CN(C)C1CCCCC1
17 | 0.5 µg/mL (≈ 0.599 µM) | 2 µg/mL (≈ 2.4 µM) | CC[C@H]1OC(=O)C[C@@H](O)[C@H](C)[C@@H](O[C@@H]2O[C@H](C)[C@@H](O)[C@H](N(C)C)[C@H]2O)[C@@H](CCNCc2cn(-c3cnc4ccccc4c3)nn2)C[C@@H](C)C(=O)/C=C/C(C)=C/[C@@H]1CN(C)C
18 | 0.5 µg/mL (≈ 0.59 µM) | 4 µg/mL (≈ 4.72 µM) | CC[C@H]1OC(=O)C[C@@H](O)[C@H](C)[C@@H](O[C@@H]2O[C@H](C)[C@@H](O)[C@H](N(C)C)[C@H]2O)[C@@H](CCNCc2cn(-c3cnc4ccccc4c3)nn2)C[C@@H](C)C(=O)/C=C/C(C)=C/[C@@H]1CN(C)CC
19 | 0.5 µg/mL (≈ 0.533 µM) | 8 µg/mL (≈ 8.53 µM) | CC[C@H]1OC(=O)C[C@@H](O)[C@H](C)[C@@H](O[C@@H]2O[C@H](C)[C@@H](O)[C@H](N(C)C)[C@H]2O)[C@@H](CCN(Cc2cn(-c3cnc4ccccc4c3)nn2)c2ccccc2)C[C@@H](C)C(=O)/C=C/C(C)=C/[C@@H]1CN(C)C(C)C
20 | 0.5 µg/mL (≈ 0.58 µM) | 2 µg/mL (≈ 2.32 µM) | CC[C@H]1OC(=O)C[C@@H](O)[C@H](C)[C@@H](O[C@@H]2O[C@H](C)[C@@H](O)[C@H](N(C)C)[C@H]2O)[C@@H](CCNCc2cn(-c3cnc4ccccc4c3)nn2)C[C@@H](C)C(=O)/C=C/C(C)=C/[C@@H]1CN(C)C(C)C
21 | 0.5 µg/mL (≈ 0.58 µM) | 4 µg/mL (≈ 4.64 µM) | CCCN(C)C[C@H]1/C=C(C)/C=C/C(=O)[C@H](C)C[C@H](CCNCc2cn(-c3cnc4ccccc4c3)nn2)[C@H](O[C@@H]2O[C@H](C)[C@@H](O)[C@H](N(C)C)[C@H]2O)[C@@H](C)[C@H](O)CC(=O)O[C@@H]1CC
22 | 0.5 µg/mL (≈ 0.563 µM) | 1 µg/mL (≈ 1.13 µM) | CC[C@H]1OC(=O)C[C@@H](O)[C@H](C)[C@@H](O[C@@H]2O[C@H](C)[C@@H](O)[C@H](N(C)C)[C@H]2O)[C@@H](CCNCc2cn(-c3cnc4ccccc4c3)nn2)C[C@@H](C)C(=O)/C=C/C(C)=C/[C@@H]1CN1CCCCCC1
23 | 0.5 µg/mL (≈ 0.511 µM) | 4 µg/mL (≈ 4.09 µM) | CC[C@H]1OC(=O)C[C@@H](O)[C@H](C)[C@@H](O[C@@H]2O[C@H](C)[C@@H](O)[C@H](N(C)C)[C@H]2O)[C@@H](CCN(Cc2cn(-c3cnc4ccccc4c3)nn2)c2ccccc2)C[C@@H](C)C(=O)/C=C/C(C)=C/[C@@H]1CN(C)C1CCCCC1
24 | 1 µg/mL (≈ 1.22 µM) | 4 µg/mL (≈ 4.87 µM) | CC[C@H]1OC(=O)C[C@@H](O)[C@H](C)[C@@H](O[C@@H]2O[C@H](C)[C@@H](O)[C@H](N(C)C)[C@H]2O)[C@@H](CCN(C)Cc2cn(-c3cnc4ccccc4c3)nn2)C[C@@H](C)C(=O)/C=C/C(C)=C/[C@@H]1CO
